Source: US20050061314A1, “Metered dose inhaler” (Vactura Limited, priority 2001, published 2005)

Key:
[1] = system: mice; settings: cited from earlier work
[2] = mouse brain; cited from earlier work
[3] = system: GABA; settings: cited from earlier work
[4] = system: effect of THC; settings: cited from earlier work
[5] = system: cataleptic effect of THC; settings: mice; cited from earlier work
[6] = Andersen Cascade Impactor aerosol characterisation of pMDI solution formulations; format: physicochemical
Method: The FPD, which provides a direct measurement of the aerosol particles considered suitable for deposition and retention in the respiratory tract, is calculated as the mass of the particles deposited from stage 3 to the filter (particles with an aerodynamic diameter less than 4.7 μm) in an Andersen Cascade Impactor.
The aerodynamic particle size distribution of an aerosol formulation is characterised using a Multistage Cascade Impactor according to the procedure described in European Pharmacopoeia 2nd edition, 1995, part V.5.9.1, pages 15-17. Generally an Andersen Cascade Impactor (ACI) is utilised. Deposition of the drug on each ACI plate is determined by high performance liquid chromatography (HPLC). Mean metered dose is calculated from the cumulative deposition in the actuator and ACI stages; mean delivered dose is calculated from the cumulative deposition in the ACI. Mean respirable dose (fine particle dose, i.e. FPD) which provides a direct measurement of the aerosol particles is considered suitable for deposition and retention in the respiratory tract, is obtained from the deposition on Stage 3 (S3) to filter (AF) corresponding to particles with an aerodynamic diameter ≦4.7 μm. Smaller particles, with an aerodynamic diameter ≦1.1 μm correspond to the fraction obtained from the deposition on Stage 6 to filter.
The FPD can also be expressed as a percentage of the ex-valve dose or recovered dose (i.e. Fine Particle Fraction: FPF≦4.7 μm or FPF≦1.1 μm). Shot weights are measured by weighing each canister before and after the actuation.
The experiments of example 2 consisted of discharging Δ^9-THC (THC)/ethanol/glycerol/HFA 134a and Δ^9-THC hemisuccinate (THC-HS)/ethanol/glycerol/HFA 134a formulations through actuator inserts housed in a modified Bespak actuator (630 series) into an Andersen Cascade Impactor operated at 28.3 L min^−1. Two product strengths, 100 μg/dose and 1000 μg/dose, were used in combination with 5% or 10% w/w ethanol, and 0.1% or 0.3% glycerol. Experiments were conducted using 0.14 and 0.16 mm diameter, 0.60 mm long, laser drilled actuator orifices in accordance with the invention in its preferred aspects and a third party supplied actuator with an orifice diameter of 0.22 mm. The quantities of drug deposited on the actuator, the throat and the stages of the impactor were measured. The delivered dose, the mass median aerodynamic diameter (MMAD), the geometric standard deviation (GSD), the fine particle dose ≦4.7 μm (FPD≦4.7) and the fine particle dose ≦1.1 μm (FPD≦1.1) were calculated from the results of these experiments and are set out in tables 3 and 4. The FPDs were also expressed as a % fraction of the ex-valve dose (FPF≦4.7, FPF≦1.1). Shot weight was measured by weighing the pMDI before and after discharge. These latter parameters are also set out in tables 3 and 4 along with other results of these experiments.

[7] = system: asthmatic patients; settings: pMDI with CFC propellant and ethanol; cited from earlier work
[8] = 100 μg, 5% Ethanol, 0.1% Glycerol, HFA134a, 50 μl, Actuator 0.14 mm
[9] = 1000 μg, 5% Ethanol, 0.1% Glycerol, HFA134a, 50 μl, Actuator 0.14 mm
[10] = 100 μg/50 μl/134a, 5% Et, 0.1% Gly, 0.14 mm Aluminium insert (4b)
[11] = 100 μg/50 μl/134a, 5% Et, 0.1% Gly, 0.16 mm Al insert (11A)
[12] = 100 μg/50 μl/134a, 5% Et, 0.1% Gly, 0.22 mm Bespak Actuator
[13] = 100 μg/50 μl/134a, 10% Et, 0.3% Gly, 0.14 mm Aluminium insert (4b)

CCCCCc1cc(O)c2c(c1)OC(C)(CCC=C(C)C)C=C2 (stereo not drawn) [CBC, cannabichromene]
effect on LD50 of THC [1]: does lower LD50 of THC

C=C(C)[C@@H]1CCC(C)=C[C@H]1c1c(O)cc(CCCCC)cc1O [CBD, cannabidiol]
effect on THC levels in the brain [2]: increases THC levels

CCCCCc1cc(O)c(C/C=C(\C)CCC=C(C)C)c(O)c1 [CBG, cannabigerol]
GABA inhibitor potency relative to THC [3]: more potent GABA inhibitor than THC

CCCCCc1cc(O)c2c(c1)OC(C)(C)c1ccc(C)cc1-2 [CBN, cannabinol]
effect on the effect of THC in man [4]: potentates the effect of THC
effect on cataleptic effect of THC [5]: antagonises cataleptic effect of THC

CCCCCc1cc(O)c2c(c1)OC(C)(C)[C@@H]1CCC(C)=C[C@@H]21 [THC, Δ^9-tetrahydrocannabinol, reference compound]
Delivered [6, 8]: 108.2 µg
FPD<1.1 μm [6, 8]: 42.01 µg
FPD<3.3 μm [6, 8]: 98.02 µg
FPD<4.7 μm [6, 8]: 101.71 µg
FPF<1.1 μm [6, 8]: 36.63%
FPF<3.3 μm [6, 8]: 85.46%
FPF<4.7 [6, 8]: 88.67%
GSD [6, 8]: 1.8
MMAD [6, 8]: 1.3 μm
Recovered [6, 8]: 114.7 µg
Shot Weight ± SD [6, 8]: 62.4 ± 0.8 mg
Delivered [6, 9]: 1044.5 µg
FPD<1.1 μm [6, 9]: 129.7 µg
FPD<3.3 μm [6, 9]: 735.5 µg
FPD<4.7 μm [6, 9]: 907.14 µg
FPF<1.1 μm [6, 9]: 11.69%
FPF<3.3 μm [6, 9]: 66.32%
FPF<4.7 [6, 9]: 81.79%
GSD [6, 9]: 1.7
MMAD [6, 9]: 2.3 μm
Recovered [6, 9]: 1109.1 µg
Shot Weight ± SD [6, 9]: 63.8 ± 0.4 mg
bronchodilatory effect [7]: bronchodilatory effect

CCCCCc1cc(OC(=O)CCC(=O)O)c2c(c1)OC(C)(C)[C@@H]1CCC(C)=C[C@@H]21 [THC-HS, Δ^9-THC hemisuccinate]
Delivered [6, 8]: 97.30 µg
FPD<1.1 μm [6, 8]: 37.56 µg
FPD<3.3 μm [6, 8]: 89.66 µg
FPD<4.7 μm [6, 8]: 91.94 µg
FPF<1.1 μm [6, 8]: 36.86%
FPF<3.3 μm [6, 8]: 87.99%
FPF<4.7 [6, 8]: 90.23%
GSD [6, 8]: 1.7
MMAD [6, 8]: 1.3 μm
Recovered [6, 8]: 101.90 µg
Shot Weight ± SD [6, 8]: 64.7 ± 0.5 mg
Actuator [6, 10]: 4.57 µg
Delivered [6, 10]: 97.30 µg
Dose < 1.1 μm [6, 10]: 37.56 µg
FPD<3.3 μm [6, 10]: 89.66 µg
FPD<4.7 μm [6, 10]: 91.94 µg
FPF<1.1 μm [6, 10]: 36.86%
FPF<3.3 μm [6, 10]: 87.99%
FPF<4.7 [6, 10]: 90.23%
GSD [6, 10]: 1.7
MMAD [6, 10]: 1.3 μm
Recovered [6, 10]: 101.90 µg
Shot Weight ± SD [6, 10]: 64.7 ± 0.5 mg
Throat [6, 10]: 3.51 µg
Actuator [6, 11]: 4.88 µg
Delivered [6, 11]: 93.40 µg
Dose < 1.1 μm [6, 11]: 28.19 µg
FPD<3.3 μm [6, 11]: 80.07 µg
FPD<4.7 μm [6, 11]: 83.56 µg
FPF<1.1 μm [6, 11]: 28.59%
FPF<3.3 μm [6, 11]: 81.25%
FPF<4.7 [6, 11]: 84.79%
GSD [6, 11]: 1.8
MMAD [6, 11]: 1.4 μm
Recovered [6, 11]: 98.55 µg
Shot Weight ± SD [6, 11]: 62.0 ± 0.6 mg
Throat [6, 11]: 7.52 µg
Actuator [6, 12]: 7.71 µg
Delivered [6, 12]: 98.00 µg
Dose < 1.1 μm [6, 12]: 24.30 µg
FPD<3.3 μm [6, 12]: 77.43 µg
FPD<4.7 μm [6, 12]: 82.02 µg
FPF<1.1 μm [6, 12]: 22.99%
FPF<3.3 μm [6, 12]: 73.25%
FPF<4.7 [6, 12]: 77.60%
GSD [6, 12]: 1.7
MMAD [6, 12]: 1.5 μm
Recovered [6, 12]: 105.70 µg
Shot Weight ± SD [6, 12]: 62.6 ± 0.4 mg
Throat [6, 12]: 13.82 µg
Actuator [6, 13]: 4.35 µg
Delivered [6, 13]: 79.50 µg
Dose < 1.1 μm [6, 13]: 14.21 µg
FPD<3.3 μm [6, 13]: 65.50 µg
FPD<4.7 μm [6, 13]: 70.93 µg
FPF<1.1 μm [6, 13]: 16.96%
FPF<3.3 μm [6, 13]: 78.16%
FPF<4.7 [6, 13]: 84.64%
GSD [6, 13]: 1.7
MMAD [6, 13]: 1.7 μm
Recovered [6, 13]: 83.80 µg
Shot Weight ± SD [6, 13]: 60.7 ± 0.6 mg
Throat [6, 13]: 5.93 µg
Delivered [6, 9]: 834.3 µg
FPD<1.1 μm [6, 9]: 138.04 µg
FPD<3.3 μm [6, 9]: 676.16 µg
FPD<4.7 μm [6, 9]: 771.92 µg
FPF<1.1 μm [6, 9]: 15.83%
FPF<3.3 μm [6, 9]: 77.56%
FPF<4.7 [6, 9]: 88.54%
GSD [6, 9]: 1.7
MMAD [6, 9]: 1.9 μm
Recovered [6, 9]: 871.8 µg
Shot Weight ± SD [6, 9]: 64.7 ± 0.6 mg
